Experimental data taken from US6494824B1, “Medical, radiotherapy source vial” (priority 1998, dated 2002).

How the values were obtained:
[1] = tested on: balloon-injured coronary arteries (neointimal formation); assay: Angioplasty balloon injury of porcine coronary arteries, xenon-133 radiogas balloon irradiation, morphometry after two weeks; type: in vivo; conditions: for IA (intimal area): two weeks after treatment, control 1.04 ± 0.20; for IA/FL (intimal area corrected for medical fracture length): control 0.55 ± 0.06
Description: Prior art systems can falter with regards to dose homogeneity, optimal efficacy, radiation safety restrictions, patient handling, and radionuclide availability. The present medical radiation treatment system was developed and tested for irradiation with historically safe xenon-133 inert radiogas. In order to determine the efficacy of xenon-133 radiogas to inhibit neointimal formation and subsequent luminal restenosis, angioplasty balloon injury was performed in the coronary arteries of 17 juvenile porcine subjects. Following balloon injury of the coronary arteries of these porcine subjects, 3.0 to 3.5 mm balloons of 30 to 40 mm lengths were positioned to cover and overlap the injured vessel segment. A negative pressure was obtained in the radiocatheter prior to placement. Xenon-133 activity of 250-300 mCi (in 2.0-2.5 cc's) was injected to fill the balloon segment, uniformly abutting the lumen wall. A dose of either 15 Gy or 30 Gy was prescribed and delivered to a target tissue depth of 0.25 mm from the expanded balloon surface. The dwell time during inflation was 2±0.5 minutes (avg.). Prior in vitro dosimetry trials were performed to obtain reference micro-dosimetry results. Summary data analysis including reference tables and graphics, were performed and applied for delivery ranges as described above. This was performed using multiple trials with Cook GRII® balloon catheters of various coronary sizes with different quantities of xenon-133 (millicuries), exposure time (min.), and volumes (cc). Customized solid water phantoms, layered Gafchromic film, laser/light densitometry readings, and referenced dosimetry graphics were standardly applied to obtain these referenced measurements.
(§1) Localization of the radiogas filled balloon was verified by Gamma Camera and fluoroscopic imaging. The radiation exposure measured 100 mR/h at the chest wall and 5 mR/h immediately bedside. Two weeks following treatment, the animals were harvested, the arteries perfusion fixed, stained, and morphometrically analyzed. The intimal area (IA) was compared between the irradiated and control arteries.

[2] = Radiation exposure measured during radiogas balloon treatment; type: in vivo, porcine; conditions: 250-300 mCi in balloon
Description: Prior art systems can falter with regards to dose homogeneity, optimal efficacy, radiation safety restrictions, patient handling, and radionuclide availability. The present medical radiation treatment system was developed and tested for irradiation with historically safe xenon-133 inert radiogas. In order to determine the efficacy of xenon-133 radiogas to inhibit neointimal formation and subsequent luminal restenosis, angioplasty balloon injury was performed in the coronary arteries of 17 juvenile porcine subjects. […] This was performed using multiple trials with Cook GRII® balloon catheters of various coronary sizes with different quantities of xenon-133 (millicuries), exposure time (min.), and volumes (cc). Customized solid water phantoms, layered Gafchromic film, laser/light densitometry readings, and referenced dosimetry graphics were standardly applied to obtain these referenced measurements.
as §1, with “The intimal area (IA) was compared between the irradiated and control arteries.” left out

radiation exposure ([2]; at the chest wall): 100 mR/h
radiation exposure ([2]; immediately bedside): 5 mR/h
Compound: [133Xe] [Xe-133, xenon-133]
% absolute ratio reduction (IA/FL vs control) ([1]; 15 Gy): 71%
IA (intimal area) ([1]; 15 Gy at 0.25 mm tissue depth, n = 9): 0.34 ± 0.17 mm^2
share of group showing IA (mm^2) of ≦0.06 ([1]; 15 Gy group): 66%
IA/FL (intimal area corrected for medical fracture length) ([1]; 15 Gy, n = 9): 0.16 ± 0.08
% absolute ratio reduction (IA/FL vs control) ([1]; 30 Gy): 45%
IA (intimal area) ([1]; 30 Gy at 0.25 mm tissue depth, n = 8): 0.38 ± 0.18 mm^2
share of group showing IA (mm^2) of ≦0.06 ([1]; 30 Gy group): 44%
thrombosis ([1]; 30 Gy group): slight trend toward increased thrombosis
IA/FL (intimal area corrected for medical fracture length) ([1]; 30 Gy, n = 8): 0.32 ± 0.12
neointimal formation (conclusion from harvested vessels) ([1]; porcine model, radiogas balloon catheter): effective in markedly reducing neointimal formation
